Consider one compound from patent publication US20230203445A1, “HYPOIMMUNOGENIC CELLS” (HEALIOS K.K., priority 2020, published 2023).

The assay concerns iCaspase9-introduced cells. Briefly: Suicide gene function: cell death induction by rapamycin (CellTiter Glo). The format is cell-based, human. The following applies: 24 hr. Here is the method: Next, an experiment was conducted to confirm whether the introduced suicide gene is functionable. In order to confirm the function of the suicide gene iCaspase9 introduced into universal donor iPS cells as a safety mechanism, the cell death induction by the addition of rapamycin in vitro was confirmed. In order to evaluate the cell death induction efficiency, CellTiter Glo Assay Kit (Promega) was used to luminescence measure the cell viability based on the amount of ATP, which is an index of cell viability. The above-mentioned iCaspase9-introduced cells (clone B), and iCaspase9-free unedited cells (Parental) were cultured for 24 hr under the condition of each rapamycin concentration (0 nM, 0.003 nM, 0.01 nM, 0.03 nM, 0.1 nM, 0.3 nM, 1 nM) and the viable cell rate was measured.
A general note: Cellular ATP, detected with luciferase, serves as a proxy for viable cell number.

In the case of `CO[C@H]1C[C@@H]2CC[C@@H](C)[C@@](O)(O2)C(=O)C(=O)N2CCCC[C@H]2C(=O)O[C@H]([C@H](C)C[C@@H]2CC[C@@H](O)[C@H](OC)C2)CC(=O)[C@H](C)/C=C(\C)[C@@H](O)[C@@H](OC)C(=O)[C@H](C)C[C@H](C)/C=C/C=C/C=C/1C` [rapamycin], the “rapamycin concentration at which cell death was induced by iCaspase9” value is on record as at least 0.1 nM.
